Experimental data taken from US20180216060A1, “METHODS AND MEANS FOR THE MODIFICATION OF CELL SURFACES” (ACADEMISCH ZIEKENHUIS LEIDEN (ALSO ACTING UNDER THE NAME OF …, priority 2015, published 2018).
Where a SMILES comes first, the peptide text is derived from it. Bridges are numbered along the chain shown (N, C = ends). [ ]: non-standard residue; d: D form. The star is where a group is joined. Adamantane1carbonyl = O=C(C12CC3CC(CC(C3)C1)C2)*; 2Nal = N[C@@H](Cc1ccc2ccccc2c1)C(=O)O; Cit = NC(=O)NCCC[C@H](N)C(=O)O

What was measured:
[1] = Sensing: binding of functionalized cells to a glass slide coated with β-cyclodextrin; settings: 1 h ligand incubation, 15 min on slide
Method: A glass slide was coated with β-cyclodextrin in a line of 400 micrometer wide. CXCR4 expressing cells (see previous examples) were incubated for 1 h with the ligand-guest compound Ac-TZ14011-Ad as discussed above and then added to the glass slide and incubated for 15 min. […] The conclusion of this experiment is that cells can be selectively found (and bound) within a solution by using the guest-host chemistry of the present invention. This enables one to purify (and at least to sense) particular types of cells within a solution and/or mixture of cells.

CXCR4 receptor = molecular target: T1, CXCR4 receptor (Homo sapiens, UniProt P61073); test: Flow cytometry competition with Ac-TZ14011-MSAP to determine receptor affinity (KD); type: binding; settings: competition with Ac-TZ14011-MSAP (250 nM), MDA-GFP-CXCR4+ cells
T1 construct: expressed in transfected cells; host or cells: MDA-MB-231 human breast cancer cells (MDA-GFP-CXCR4+), gift of Dr. Gary Luker
From the text: The necessity of a multivalent approach was studied by direct comparison between an entity comprising polymeric host functional groups (multivalent) and a monovalent host functional group. A genetically modified MDA-MB-231 human breast cancer cell line that has the Green Fluorescent Protein (GFP) directly coupled to the overexpressed CXCR4 receptor was used to study the interactions with CXCR4 positive cells. The CXCR4 chemokine receptor is over-expressed in the membrane of many human cancer cells, but CXCR4 also play a major role in the chemotaxis of stem cells. The cyclic peptide Ac-TZ14011 is often used to target this receptor and was also chosen here as the ligand. […] The binding strength between the receptor and the peptide was determined by competition with a previously reported modified Ac-TZ14011 derivative. […] The cells were then washed two times with 1% BSA in PBS, resuspended in 1% BSA in PBS and fluorescence of the reference compound was measured by using a BD FacsCanto™ II flow cytometer with APC-Cy7 settings. Live cells were gated on forward scatter and side scatter and 10000 viable cells were analyzed. […] The KD values were calculated by using the “Binding-Competitive, One site-Fit Ki” nonlinear regression equation of GraphPad Prism. […]
MDA-GFP-CXCR4+ cells were trypsinized (using 0.5% trypsin/EDTA, BD Biosciences) and counted. […]

T1 sequence (P61073 whole entry): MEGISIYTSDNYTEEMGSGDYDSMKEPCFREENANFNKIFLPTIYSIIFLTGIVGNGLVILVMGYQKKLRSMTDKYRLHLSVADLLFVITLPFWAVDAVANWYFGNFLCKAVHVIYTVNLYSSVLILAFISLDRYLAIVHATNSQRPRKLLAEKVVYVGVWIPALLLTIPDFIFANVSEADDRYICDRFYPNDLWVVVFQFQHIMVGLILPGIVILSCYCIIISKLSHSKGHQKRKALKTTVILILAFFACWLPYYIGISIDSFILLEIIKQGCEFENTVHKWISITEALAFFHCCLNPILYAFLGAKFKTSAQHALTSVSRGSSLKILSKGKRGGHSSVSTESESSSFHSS

CC(=O)N[C@@H](CCCNC(=N)N)C(=O)N[C@@H](CCCNC(=N)N)C(=O)N[C@@H](Cc1ccc2ccccc2c1)C(=O)N[C@H]1CSSC[C@@H](C(=O)N[C@@H](CCCNC(=N)N)C(N)=O)NC(=O)[C@H](CCCNC(N)=O)NC(=O)[C@H](CCCNC(=N)N)NC(=O)[C@H](Cc2ccc(O)cc2)NC(=O)[C@@H]2CCCN2C(=O)[C@@H](CCCCNC(=O)C23CC4CC(CC(C4)C2)C3)NC(=O)[C@H](CCCNC(=N)N)NC(=O)[C@H](CCCNC(N)=O)NC(=O)[C@H](Cc2ccc(O)cc2)NC1=O [Ac-TZ14011-Ad] (Ac-RR[2Nal]CY[Cit]R[dK](Adamantane1carbonyl)PYR[Cit]CR-NH2; disulfide 4-13)
attachment of functionalized cells to the cyclodextrin coated area [1]: preferentially attach
Kd (CXCR4 receptor): 56 nM
